From patent US20240423998A1, “METHODS OF TREATING AGITATION AND OTHER DEMENTIA-ASSOCIATED BEHAVIORAL SYMPTOMS” (WOOLSEY PHARMACEUTICALS, INC., priority 2021, published 2024)
Counter-ions that a name gives are not always drawn.

Legend:
[1] = in vivo, metabolite; cited from earlier work
[2] = tested on: agitation in patients with Alzheimer's Dementia (AD); experiment: Clinical trial of oral fasudil in reducing agitation in patients with Alzheimer's Dementia (CMAI score); format: in vivo, human
Procedure: All the patients were treated for 6 weeks with 90 mg per day (30 mg TID) and a subset of patients was treated an additional 6 weeks with 180 mg per day (60 mg TID). […] A variety of assessments were conducted at baseline and at the end of treatment, including the NPI-Q and the CMAI.
Two baseline thresholds were set, and two analyses were done based on the two groupings that resulted. One threshold was based on the agitation/aggression domain of the NPI-Q and the other based on the CMAI score.
The first selection was based on NPI-Q score of ≥4.
The second selection required a baseline CMAI score of ≥20 and this yielded a 13-patient subgroup, having a mean baseline CMAI score of 34.4. […] All the patients selected using the NPI-Q agitation/aggression domain score of ≥4 were also included in this subgroup.
The analysis looked at the CMAI score prior to treatment and compared it to the last day of treatment (6 weeks for the 10 patients on the low dose and 12 weeks for the 3 patients on the high dose).

[3] = tested on: mice; settings: six-month old mice, 10 mg/kg oral gavage once a day for 30 days; reduction indicates anxiety; cited from earlier work

O=S(=O)(c1cccc2c(O)nccc12)N1CCCNCC1 [M3]
half-life [1]: about 8 hours

O=S(=O)(c1cccc2cnccc12)N1CCCNCC1 [fasudil HCl hemihydrate, Hexahydro-1-(5-isoquinolinesulfonyl)-1H-1,4-diazepine monohydrochloride hemihydrate]
tolerability of treatment regimens ([2]; nineteen AD patients, 90 mg per day (30 mg TID) 6 weeks and 180 mg per day (60 mg TID) additional 6 weeks): well tolerated

O=S(=O)(c1cccc2cnccc12)N1CCCNCC1 [fasudil]
amount of time spent in the open arms of the maze [3]: significantly reduced | difference in mean CMAI score, baseline vs end of treatment ([2]; six patients with baseline NPI-Q score >=4, 90 mg per day (30 mg TID) for 6 weeks): 22.3 | mean CMAI score at the end of treatment ([2]; six patients with baseline NPI-Q score >=4, 90 mg per day (30 mg TID) for 6 weeks, mean baseline CMAI 45.3): 23.0 | difference in mean CMAI score, prior to treatment vs end of treatment ([2]; thirteen patients with baseline CMAI score >=20, 6 weeks at 90 mg per day (10 patients) or additional 6 weeks at 180 mg per day (3 patients)): 12.6 | mean CMAI score at the end of treatment ([2]; thirteen patients with baseline CMAI score >=20, 6 weeks at 90 mg per day (10 patients) or additional 6 weeks at 180 mg per day (3 patients), mean baseline CMAI 34.4): 21.8
